Measured values reported in PubChem BioAssay (NCI).
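Where inhibition never reached the appropriate level, the endpoint shown equals the highest concentration tested. Otherwise, values were interpolated linearly from a five-concentration, 48-hour dose response in 96-well plates. Here, GI50 denotes the concentration required for 50% inhibition of growth. TGI: total growth inhibition.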

How the values were obtained:
Experiment in all cases: NCI-60 cell line screen, 48 h
HCC-2998 colon = tested on: HCC-2998 colon
UACC-62 melanoma = tested on: UACC-62 melanoma
MOLT-4 leukemia = tested on: MOLT-4 leukemia
K-562 leukemia = tested on: K-562 leukemia
KM12 colon = tested on: KM12 colon
SF-295 CNS = tested on: SF-295 CNS
EKVX NSCLC = tested on: EKVX NSCLC
SNB-19 CNS = tested on: SNB-19 CNS
COLO 205 colon = tested on: COLO 205 colon
LOX IMVI melanoma = tested on: LOX IMVI melanoma
UO-31 renal = tested on: UO-31 renal
T-47D breast = tested on: T-47D breast
NCI-H23 lung = tested on: NCI-H23 lung
MCF7 breast = tested on: MCF7 breast
UACC-257 melanoma = tested on: UACC-257 melanoma
U251 CNS = tested on: U251 CNS
A498 renal = tested on: A498 renal
SK-MEL-5 melanoma = tested on: SK-MEL-5 melanoma
SN12C renal = tested on: SN12C renal
HCT-15 colon = tested on: HCT-15 colon
786-0 renal = tested on: 786-0 renal
SNB-75 CNS = tested on: SNB-75 CNS
ACHN renal = tested on: ACHN renal
IGROV1 ovarian = tested on: IGROV1 ovarian
RXF 393 renal = tested on: RXF 393 renal
TK-10 renal = tested on: TK-10 renal
SF-268 CNS = tested on: SF-268 CNS
MDA-MB-435 = tested on: MDA-MB-435
SK-OV-3 ovarian = tested on: SK-OV-3 ovarian
OVCAR-4 ovarian = tested on: OVCAR-4 ovarian
MDA-MB-231 breast = tested on: MDA-MB-231 breast
DU-145 prostate = tested on: DU-145 prostate
A549 NSCLC = tested on: A549 NSCLC
NCI-H226 lung = tested on: NCI-H226 lung
OVCAR-3 ovarian = tested on: OVCAR-3 ovarian
OVCAR-5 ovarian = tested on: OVCAR-5 ovarian
PC-3 prostate = tested on: PC-3 prostate
BT-549 breast = tested on: BT-549 breast
SK-MEL-28 melanoma = tested on: SK-MEL-28 melanoma
HOP-92 NSCLC = tested on: HOP-92 NSCLC
CCRF-CEM leukemia = tested on: CCRF-CEM leukemia
HT29 colon = tested on: HT29 colon
NCI/ADR-RES ovarian = tested on: NCI/ADR-RES ovarian
HCT-116 colon = tested on: HCT-116 colon
SF-539 CNS = tested on: SF-539 CNS
HOP-62 NSCLC = tested on: HOP-62 NSCLC
OVCAR-8 ovarian = tested on: OVCAR-8 ovarian
SW-620 colon = tested on: SW-620 colon
NCI-H460 lung = tested on: NCI-H460 lung

Compound: CCOC(=O)c1[nH]c(-c2ccc(Cl)cc2)cc1-c1cccnc1
- GI50 (HCC-2998 colon): 9.46 µM
- TGI (HCC-2998 colon): > 100 µM
- GI50 (UACC-62 melanoma): 843 nM
- TGI (UACC-62 melanoma): > 100 µM
- GI50 (MOLT-4 leukemia): 683 nM
- TGI (MOLT-4 leukemia): > 100 µM
- GI50 (K-562 leukemia): 391 nM
- TGI (K-562 leukemia): > 100 µM
- GI50 (KM12 colon): 595 nM
- TGI (KM12 colon): > 100 µM
- GI50 (SF-295 CNS): 453 nM
- TGI (SF-295 CNS): > 100 µM
- GI50 (EKVX NSCLC): 1350 nM
- TGI (EKVX NSCLC): > 100 µM
- GI50 (SNB-19 CNS): 8.33 µM
- TGI (SNB-19 CNS): > 100 µM
- GI50 (COLO 205 colon): 398 nM
- TGI (COLO 205 colon): 7.49 µM
- GI50 (LOX IMVI melanoma): 659 nM
- TGI (LOX IMVI melanoma): > 100 µM
- GI50 (UO-31 renal): 1020 nM
- TGI (UO-31 renal): > 100 µM
- GI50 (T-47D breast): 612 nM
- TGI (T-47D breast): > 100 µM
- GI50 (NCI-H23 lung): 2330 nM
- TGI (NCI-H23 lung): > 100 µM
- GI50 (MCF7 breast): 453 nM
- TGI (MCF7 breast): > 100 µM
- GI50 (UACC-257 melanoma): > 100 µM
- TGI (UACC-257 melanoma): > 100 µM
- GI50 (U251 CNS): 622 nM
- TGI (U251 CNS): > 100 µM
- GI50 (A498 renal): 811 nM
- TGI (A498 renal): 9.37 µM
- GI50 (SK-MEL-5 melanoma): 401 nM
- TGI (SK-MEL-5 melanoma): > 100 µM
- GI50 (SN12C renal): 1440 nM
- TGI (SN12C renal): > 100 µM
- GI50 (HCT-15 colon): 437 nM
- TGI (HCT-15 colon): > 100 µM
- GI50 (786-0 renal): 440 nM
- TGI (786-0 renal): 8.58 µM
- GI50 (SNB-75 CNS): 738 nM
- TGI (SNB-75 CNS): > 100 µM
- GI50 (ACHN renal): 714 nM
- TGI (ACHN renal): > 100 µM
- GI50 (IGROV1 ovarian): 1370 nM
- TGI (IGROV1 ovarian): > 100 µM
- GI50 (RXF 393 renal): 1270 nM
- TGI (RXF 393 renal): 7.23 µM
- GI50 (TK-10 renal): 972 nM
- TGI (TK-10 renal): > 100 µM
- GI50 (SF-268 CNS): 2360 nM
- TGI (SF-268 CNS): > 100 µM
- GI50 (MDA-MB-435): 279 nM
- TGI (MDA-MB-435): 1420 nM
- GI50 (SK-OV-3 ovarian): 1050 nM
- TGI (SK-OV-3 ovarian): > 100 µM
- GI50 (OVCAR-4 ovarian): 10.2 µM
- TGI (OVCAR-4 ovarian): > 100 µM
- GI50 (MDA-MB-231 breast): 1670 nM
- TGI (MDA-MB-231 breast): > 100 µM
- GI50 (DU-145 prostate): 1880 nM
- TGI (DU-145 prostate): > 100 µM
- GI50 (A549 NSCLC): 812 nM
- TGI (A549 NSCLC): > 100 µM
- GI50 (NCI-H226 lung): 17.3 µM
- TGI (NCI-H226 lung): > 100 µM
- GI50 (OVCAR-3 ovarian): 349 nM
- TGI (OVCAR-3 ovarian): > 100 µM
- GI50 (OVCAR-5 ovarian): 1170 nM
- TGI (OVCAR-5 ovarian): > 100 µM
- GI50 (PC-3 prostate): 325 nM
- TGI (PC-3 prostate): > 100 µM
- GI50 (BT-549 breast): 270 nM
- TGI (BT-549 breast): 1460 nM
- GI50 (SK-MEL-28 melanoma): 982 nM
- TGI (SK-MEL-28 melanoma): > 100 µM
- GI50 (HOP-92 NSCLC): 572 nM
- TGI (HOP-92 NSCLC): 84.7 µM
- GI50 (CCRF-CEM leukemia): 391 nM
- TGI (CCRF-CEM leukemia): > 100 µM
- GI50 (HT29 colon): 350 nM
- TGI (HT29 colon): > 100 µM
- GI50 (NCI/ADR-RES ovarian): 511 nM
- TGI (NCI/ADR-RES ovarian): > 100 µM
- GI50 (HCT-116 colon): 387 nM
- TGI (HCT-116 colon): > 100 µM
- GI50 (SF-539 CNS): 423 nM
- TGI (SF-539 CNS): 7.14 µM
- GI50 (HOP-62 NSCLC): 868 nM
- TGI (HOP-62 NSCLC): > 100 µM
- GI50 (OVCAR-8 ovarian): 2510 nM
- TGI (OVCAR-8 ovarian): > 100 µM
- GI50 (SW-620 colon): 2870 nM
- TGI (SW-620 colon): > 100 µM
- GI50 (NCI-H460 lung): 449 nM
- TGI (NCI-H460 lung): > 100 µM
